Assay results reported in patent publication US9434769B2, “Peptide compositions and methods for inhibiting herpesvirus infection” (priority 2009, dated 2016).
Like-named read-outs stand apart in the source and are kept apart here.

What was measured:
HCMV TRpMIA = experiment: Inhibition of HCMV TRpMIA infection of HFF cells (IE-1/IE-2 positive cells); assay type: cell-based, Human Cytomegalovirus (HCMV); settings: for significance of inhibition of infection: vs non-treated infected control
Description: In order to assess the ability of the peptides of the present invention to inhibit a clinically significant HCMV (HCMV TRpMIA), Peptide 174-200 (SEQ ID NO:3), Peptide 233-263 (SEQ ID NO: 4), and Peptide 264-291 (SEQ ID NO: 5), were tested for inhibition of HCMV TRpMIA infection of HFF cells under the assay conditions similar to these described in Example 2 for the Towne strain of HCMV, above. In particular, HFF cells were plated in 96-well plates at a density of about 10,000 cells-per-well about 24 hours […]. Individual inhibitory peptides were evaluated against 0.5 MOI HCMV TRpMIA preincubated with various concentrations in the range of about 0.078 micromolar to about 100 micromolar. The results obtained from these assays are shown in FIG. 13, FIG. 14, and FIG. 15 for Peptide 174-200, Peptide 233-263, and Peptide 264-291, respectively. The degree of HCMV infection was determined by evaluating the number of cells expressing immediate-early 1 (IE-1) or IE-2 HCMV proteins 24 hours post-infection. Treatments resulting in significant reductions in the number of cells that were positive for IE 1, IE-2, or both, compared to non-treated control HCMV infected cells, are denoted by a * (p<0.05), ** (p<0.01), and *** (p<0.001, one-way ANOVA and Tukey's post test). Variants and derivatives of Peptide 233-263 (SEQ ID NO: 4) also were prepared and tested in the same assay. The sequences of the tested variants and derivatives are shown in Table 4, with additions or modifications from SEQ ID NO: 4 shown in boldface type.

Towne GFP strain of HCMV = assay type: cell-based, Human Cytomegalovirus (HCMV); settings: for inhibition of viral infection: HFF cells, MOI 0.5, 48 hours post infection
Description: The Towne strain of HCMV containing the Green Fluorescent Protein (GFP) expression cassette was obtained from Dr. Dan Streblow at the Oregon Health Science University and was propagated in human foreskin fibroblast (HFF) cells. Viral supernatants were collected, centrifuged to clear cell debris, and filtered through a 0.45 μm filter. HFF cells were grown in Dulbecco's modified Eagle medium (DMEM) supplemented with 10% fetal bovine serum (FBS), penicillin G (100 U/mL), streptomycin ([…]), and GLUTAMAX™ L-glutamine supplement (2 mM) from Invitrogen.
Human foreskin fibroblasts were seeded at the density of about 3.5×10^5 cells in each well of a 24-well plate about 24 hours prior to infection. The HFF cells were washed with 1×DPBS, and mock or virus infected for about 90 minutes at room temperature (RT) with the Towne GFP strain of HCMV at about 0.5 multiplicity of infection (MOI), preincubated with a range of concentrations of inhibitory peptides at about 37° C. for about 90 minutes. After the infection, virus mixture was removed and 10% FBS complete DMEM was added to each well and cells were incubated at about 37° C. for about 48 hours. GFP positive cells were visualized about 48 hours post infection by fluorescence microscopy and then quantified using flow cytometry. […] HFF cells were trypsinized, centrifuged, and resuspended in 1% FBS-Dulbecco's phosphate buffered saline (DPBS). GFP positive cells were quantified using flow cytometry (CYTOMICS FC 500 from Beckman Coulter, Fullerton, Calif.).
All of the synthetic peptides were tested at the following concentrations: about 100 μM, 50 μM, 25 μM, 10 μM, 5 μM, 2.5 μM, 1.25 μM, 0.625 μM, 0.3125 μM, 0.156 μM, and 0.078 μM.

HSV-1 McIntyre strain = experiment: Inhibition of HSV-1 infection of Vero cells (Crystal Violet staining); assay type: cell-based, Herpes Simplex Virus 1 (HSV-1); settings: MOI 0.001, peptide 2.5 to 100 μM; for inhibition of HSV-1 infection: 48 hours
Description: FIG. 6 illustrates inhibition of HSV-1 infection by HCMV gB peptides. To evaluate the ability of newly designed HCMV gB-specific peptide to inhibit HSV-1 infection, Vero cells were infected for about 90 minutes at room temperature with HSV-1 (McIntyre strain; MOI=0.001) that was preincubated with a range of concentrations of four different synthetic peptides at about 37° C. for about 90 minutes. Each treatment was done in triplicate, where A=media, B=HSV-1 MOI of 0.001, C=100 μM peptide and virus, D=50 μM peptide and virus, E=25 μM peptide and virus, F=10 μM peptide and virus, G=5 μM peptide and virus, H=2.5 μM peptide and virus. HCMV gB peptides (Peptide 174-200 (SEQ ID NO: 3), Peptide 233-263 (SEQ ID NO: 4), and Peptide 264-291 (SEQ ID NO: 5)) that are within domain II were inhibitory against HSV-1 infection. Peptide 476-494 (SEQ ID NO: 7) corresponds to trimerization domain of HCMV gB that contains extended α-helices important in the formation of HCMV gB homotrimer during fusion of HCMV virion and lipid membrane of the host cell. Overlapping inhibitory HSV-1 peptides span regions 496-510 and 501-515 of HSV-1 gB (SEQ ID NO: 8) and are analogous to HCMV gB Peptide 476-494 (SEQ ID NO: 7).
To evaluate the ability of HCMV gB peptides to inhibit infection by HSV-1, Vero cells were plated at a density of about 1.5×10^5 cells in each well of a 24 well-plate 24 hours prior to infection. The cells were washed and mock- or virus-infected for about 90 minutes at room temperature with HSV-1 McIntyre strain (ATCC) of about 0.001 MOI preincubated with a range of concentrations of four different synthetic peptides at about 37° C. for about 90 minutes. After exposure to the virus, the virus mixture was removed and the cells were overlayed with 2% FBS MEM containing 1% methylcellulose. Cells were incubated for about 48 hours at about 37° C. After about 48 hours, the cells were fixed, stained with Crystal Violet, and air dried.
In FIG. 6, each treatment was done in triplicate, where A=media, B=HSV-1 MOI of 0.001, C=100 μM peptide and virus, D=50 μM peptide and virus, E=25 μM peptide and virus, F=10 μM peptide and virus, G=5 μM peptide and virus, H=2.5 μM peptide and virus. […] Peptide 476-494 (SEQ ID NO: 7) corresponds to the trimerization domain of HCMV gB, which contains extended α-helices important in the formation of HCMV gB homotrimer during fusion of HCMV virion and lipid membrane of the host cell. Overlapping inhibitory HSV-1 peptides that span regions 496-510 and 501-515 of the HSV-1 gB protein (SEQ ID NO: 8) are analogous to HCMV gB peptide 476-494 (SEQ ID NO: 7). As predicted, HCMV Peptide 476-494 (SEQ ID NO: 7) worked best at the concentration of about 2.5 μM.

[1] = pregnancy; cited from earlier work
HIV-1 = settings: cited from earlier work
[2] = 25 micromolar, 24 hours post-infection
[3] = 50 micromolar, 24 hours post-infection
[4] = 100 micromolar, 24 hours post-infection
[5] = 25 micromolar to 100 micromolar

Substance: WHSRGSTWLYRETANLNAMLTITTARSKYPY [Peptide 233-263]
- significance of inhibition of infection (HCMV TRpMIA; 5 micromolar, 24 hours post-infection): * (* (p<0.05))
- significance of inhibition of infection (HCMV TRpMIA; 10 micromolar, 24 hours post-infection): *** (*** (p<0.001, one-way ANOVA and Tukey's post test))
- significance of inhibition of infection (HCMV TRpMIA; [2]): *** (*** (p<0.001, one-way ANOVA and Tukey's post test))
- significance of inhibition of infection (HCMV TRpMIA; [3]): *** (*** (p<0.001, one-way ANOVA and Tukey's post test))
- extent of inhibition of infection (HCMV TRpMIA; 50 to 100 micromolar): almost complete inhibition
- significance of inhibition of infection (HCMV TRpMIA; [4]): *** (*** (p<0.001, one-way ANOVA and Tukey's post test))
- inhibition of infection seen in fluorescent and bright light images (FIG. 4) (Towne GFP strain of HCMV; 100 μM, MOI 0.5, 48 hours post-infection): effectively inhibited infection of the cells
- inhibition of viral infection (Towne GFP strain of HCMV; peptide 2.5 μM): about 60%
- inhibition of viral infection (Towne GFP strain of HCMV; peptide 50 μM): about 92%
- inhibition of viral infection (Towne GFP strain of HCMV; peptide 100 μM): about 97%
- inhibition of HSV-1 infection (HSV-1 McIntyre strain): inhibited HSV-1 infection

Substance: VTVKDQWHSRGSTWLYRETANLNAMLTITTARSKYPY (Modified HCMV gB peptide) [Peptide 233-263.2]
- inhibition of HCMV TRpMIA infection compared to Peptide 233-263 (HCMV TRpMIA): less effective
- inhibition relative to the controls (HCMV TRpMIA): some level of inhibition

Substance: HNLVYAQLQFTYDTLRGYI (human cytomegalovirus glycoprotein B peptide) [Peptide 476-494, synthetic peptide of the trimerization domain of HCMV gB, residues 476-494]
- number of HCMV infected cells versus peptide concentration (Towne GFP strain of HCMV; decreasing peptide concentration): the number of HCMV infected cells decreased as the concentration of this peptide decreased
- inhibitory activity against HCMV strain Towne-GFP (Towne GFP strain of HCMV; high concentrations tested): did not show any inhibitory activity
- concentration at which the peptide worked best against HSV-1 (HSV-1 McIntyre strain): about 2.5 μM

Substance: HFFATSTGDVVYISPFYNGTNRNASYFG (human cytomegalovirus glycoprotein B peptide) [Peptide 264-291, synthetic peptide of HCMV gB residues 264-291]
- significance of inhibition of infection (HCMV TRpMIA; [3]): * (* (p<0.05))
- significance of inhibition of infection (HCMV TRpMIA; [4]): * (* (p<0.05))
- inhibition of viral infection (Towne GFP strain of HCMV; peptide 5 μM): about 70.5%
- inhibition of HSV-1 infection (HSV-1 McIntyre strain): inhibited HSV-1 infection

Substance: KDQWHSRGSTWLYRETANLNAMLTITTARSKYPY (Modified HCMV gB peptide) [Peptide 233-263.1]
- inhibition of HCMV TRpMIA infection compared to Peptide 233-263 (HCMV TRpMIA): less effective
- inhibition relative to the controls (HCMV TRpMIA): some level of inhibition

Substance: WHSRGSTWLYRETANLNAMLTITTARSKYPYGRKKRRQRRRP (human cytomegalovirus glycoprotein B peptide) [Peptide 233-263.8]
- inhibition of HCMV TRpMIA infection compared to Peptide 233-263 (HCMV TRpMIA): less effective
- inhibition relative to the controls (HCMV TRpMIA): some level of inhibition

Substance: enfuvirtide
- crossing of the placenta [1]: does not cross the placenta
- vertical transmission of HIV-1 in pregnancy (HIV-1): prevents vertical transmission of HIV-1 in pregnancy

Substance: WHSRGSTWLYRAETANLNAMLTITTARSKYPY (Modified HCMV gB peptide) [Peptide 233-263.5]
- inhibition of HCMV TRpMIA infection compared to Peptide 233-263 (HCMV TRpMIA): less effective
- inhibition relative to the controls (HCMV TRpMIA): some level of inhibition

Substance: KDQWHSRGSTWLYRETANLNAMLTITTARSKYPYHFFATS [Peptide 233-263.4]
- inhibition of HCMV TRpMIA infection compared to Peptide 233-263 (HCMV TRpMIA): less effective
- inhibition relative to the controls (HCMV TRpMIA): some level of inhibition

Substance: WEIHHINKFAQAYSSYSRVIGGTVFVA [Peptide 174-200]
- significance of inhibition of infection (HCMV TRpMIA; [2]): ** (** (p<0.01))
- significance of inhibition of infection (HCMV TRpMIA; [3]): * (* (p<0.05))
- significance of inhibition of infection (HCMV TRpMIA; [4]): *** (*** (p<0.001, one-way ANOVA and Tukey's post test))
- inhibition of viral infection (Towne GFP strain of HCMV; peptide 2.5 μM): ~62%
- inhibition of viral infection (Towne GFP strain of HCMV; peptide 5 μM): about 51%
- inhibition of viral infection (Towne GFP strain of HCMV; peptide 100 μM): about 80%
- inhibition of HSV-1 infection (HSV-1 McIntyre strain): inhibited HSV-1 infection

Substance: FFIFPNYTIVSDFGRPNAA (human cytomegalovirus glycoprotein B peptide) [Peptide 297-315, synthetic peptide of HCMV gB residues 297-315]
- inhibition of viral infection (Towne GFP strain of HCMV; peptide 50 μM): about 40%

Substance: WHSRGSTWLYRETANLNAMLTITTARSKYPYHFF (Modified HCMV gB peptide) [Peptide 233-263.3]
- inhibition of HCMV TRpMIA infection compared to Peptide 233-263 (HCMV TRpMIA): less effective
- inhibition relative to the controls (HCMV TRpMIA): some level of inhibition

Substance: WHSRGSTWLYRETANLNAMLTITTARSKYPYP (Modified HCMV gB peptide) [Peptide 233-263.6]
- inhibition of HCMV TRpMIA infection compared to Peptide 233-263 (HCMV TRpMIA): less effective
- inhibition relative to the controls (HCMV TRpMIA): some level of inhibition

Substance: WHSRGSTWLYRETANLNAMLTITTARSKYPYRRRRRRRRR (human cytomegalovirus glycoprotein B peptide) [Peptide 233-263.9]
- extent of inhibition of infection (HCMV TRpMIA; [5]): almost complete inhibition
- significance of inhibition of infection (HCMV TRpMIA; [5]): *** (*** (p<0.001, one-way ANOVA and Tukey's post test))
- inhibition of HCMV TRpMIA infection compared to Peptide 233-263 (HCMV TRpMIA): significant improvement
